Measured values from the NIST ThermoML archive (doi:10.1021/je050173+).
± gives the expanded uncertainty stated by the source.

What was measured:
[1] = for surface tension liquid-gas: Maximal bubble pressure; for viscosity / mass density / thermal conductivity: 101.33 kPa; for viscosity / mass density / thermal conductivity / vapor or sublimation pressure: Liquid; for thermal conductivity: Hot wire method
[2] = molar heat capacity at constant pressure; settings: 101.33 kPa, Liquid

C[Si]1(C)O[Si](C)(C)O[Si](C)(C)O[Si](C)(C)O[Si](C)(C)O1 [decamethylcyclopentasiloxane]
Settings | mass density [kg/m3] | molar heat capacity at constant pressure [J/K/mol] | surface tension liquid-gas [mN/m] | thermal conductivity [W/m/K] | vapor or sublimation pressure [kPa] | viscosity [mPa·s]
[1], 293.15 K | – | – | 18.04 ± 0.16 | – | – | 4.28 ± 0.13
[1], 295.05 K | 956.75 ± 0.75 | – | – | – | – | –
[1], 298.15 K | – | – | – | 0.1255 ± 0.0005 | – | 3.87 ± 0.12
[1], 300.1 K | 951.14 ± 0.78 | – | – | – | – | –
[1], 303.15 K | – | – | 17.4 ± 0.16 | – | – | 3.48 ± 0.11
[1], 303.95 K | 946.93 ± 0.81 | – | – | – | – | –
[1], 310.3 K | 939.94 ± 0.85 | – | – | – | – | –
[1], 313.15 K | – | – | 16.71 ± 0.16 | – | – | 2.82 ± 0.09
[1], 313.17 K | 936.67 ± 0.87 | – | – | – | – | –
[1], 320.5 K | 928.72 ± 0.92 | – | – | – | – | –
[1], 323.15 K | – | – | 15.99 ± 0.15 | – | – | 2.38 ± 0.07
[1], 325.6 K | 923.12 ± 0.96 | – | – | – | – | –
[1], 332.95 K | – | – | – | – | – | 2.02 ± 0.06
[1], 333.15 K | 915.02 ± 1 | – | 15.42 ± 0.15 | – | – | –
[1], 340.9 K | 906.3 ± 1.1 | – | – | – | – | –
[1], 343.15 K | – | – | 14.67 ± 0.15 | 0.1186 ± 0.0005 | – | 1.71 ± 0.05
[1], 346.05 K | 900.69 ± 1.1 | – | – | – | – | –
[1], 348.23 K | – | – | – | – | 0.703 ± 0.08 | –
[1], 350.87 K | – | – | – | – | 0.801 ± 0.08 | –
[1], 351.11 K | – | – | – | – | 0.82 ± 0.08 | –
[1], 353.1 K | 892.8 ± 1.1 | – | – | – | – | –
[1], 353.15 K | – | – | 13.98 ± 0.14 | – | – | 1.48 ± 0.05
[1], 355.91 K | – | – | – | – | 1.103 ± 0.08 | –
[1], 357.29 K | – | – | – | – | 1.207 ± 0.08 | –
[1], 361.2 K | – | – | – | – | 1.468 ± 0.081 | –
[1], 363.15 K | – | – | 13.3 ± 0.14 | – | – | –
[1], 366.4 K | 878.24 ± 1.2 | – | – | – | – | –
[1], 370.08 K | – | – | – | – | 2.381 ± 0.081 | –
[1], 373.15 K | 870.77 ± 1.3 | – | 12.64 ± 0.14 | – | – | 1.11 ± 0.04
[1], 374.37 K | – | – | – | – | 2.913 ± 0.081 | –
[1], 377.85 K | – | – | – | – | 3.452 ± 0.081 | –
[1], 378.07 K | – | – | – | – | 3.482 ± 0.081 | –
[1], 380.74 K | – | – | – | – | 3.901 ± 0.082 | –
[1], 381.7 K | 861.4 ± 1.4 | – | – | – | – | –
[1], 391.9 K | 850.17 ± 1.4 | – | – | – | – | –
[1], 393.15 K | – | – | 11.28 ± 0.13 | – | – | 0.86 ± 0.03
[1], 394.66 K | – | – | – | – | 7.191 ± 0.083 | –
[1], 397 K | 844.55 ± 1.5 | – | – | – | – | –
[1], 398.63 K | – | – | – | – | 8.45 ± 0.084 | –
[1], 402.72 K | – | – | – | – | 9.938 ± 0.084 | –
[1], 407.2 K | 833.32 ± 1.6 | – | – | – | – | –
[1], 412.81 K | – | – | – | – | 14.52 ± 0.086 | –
[1], 413.15 K | 826.73 ± 1.6 | – | 9.93 ± 0.12 | – | – | 0.69 ± 0.02
[1], 416.46 K | – | – | – | – | 16.55 ± 0.088 | –
[1], 417.4 K | 822.08 ± 1.6 | – | – | – | – | –
[1], 422.5 K | 816.45 ± 1.7 | – | – | – | – | –
[1], 423.94 K | – | – | – | – | 21.39 ± 0.09 | –
[1], 432.91 K | – | – | – | – | 28.6 ± 0.093 | –
[1], 433.15 K | 804.71 ± 1.8 | – | 8.57 ± 0.12 | – | – | –
[1], 439.98 K | – | – | – | – | 35.47 ± 0.097 | –
[1], 442.9 K | 793.98 ± 1.9 | – | – | – | – | –
[1], 448.41 K | – | – | – | – | 45.28 ± 0.1 | –
[1], 453.15 K | 782.6 ± 2 | – | – | – | – | 0.46 ± 0.02
[1], 455.39 K | – | – | – | – | 54.85 ± 0.11 | –
[1], 462.39 K | – | – | – | – | 66.09 ± 0.11 | –
[1], 473.15 K | – | – | – | – | – | 0.39 ± 0.02
[1], 479.53 K | – | – | – | – | 100.9 ± 0.13 | –
[1], 493.15 K | – | – | – | – | – | 0.33 ± 0.01
[2], 288.78 K | – | 636.3 ± 4.9 | – | – | – | –
[2], 293.13 K | – | 638.5 ± 4.9 | – | – | – | –
[2], 297.95 K | – | 640.6 ± 5 | – | – | – | –
[2], 303.18 K | – | 643.1 ± 5 | – | – | – | –
[2], 308.95 K | – | 644.5 ± 5 | – | – | – | –
[2], 313.15 K | – | 647.7 ± 5 | – | – | – | –
[2], 319 K | – | 650.4 ± 5 | – | – | – | –
[2], 323.15 K | – | 652.4 ± 5.1 | – | – | – | –
[2], 329.05 K | – | 655.1 ± 5.1 | – | – | – | –
[2], 334.74 K | – | 657.9 ± 5.1 | – | – | – | –
[2], 338.5 K | – | 659.5 ± 5.1 | – | – | – | –
[2], 342.08 K | – | 661.2 ± 5.1 | – | – | – | –
[2], 349.25 K | – | 664.5 ± 5.1 | – | – | – | –
[2], 352.2 K | – | 667.1 ± 5.2 | – | – | – | –
[2], 356.83 K | – | 668 ± 5.2 | – | – | – | –
[2], 361.28 K | – | 670.1 ± 5.2 | – | – | – | –
[2], 366.35 K | – | 672.4 ± 5.2 | – | – | – | –
[2], 370.25 K | – | 674.2 ± 5.2 | – | – | – | –
[2], 375.43 K | – | 676.6 ± 5.2 | – | – | – | –
[2], 380.95 K | – | 679.1 ± 5.3 | – | – | – | –
[2], 388.65 K | – | 682.5 ± 5.3 | – | – | – | –
[2], 391.43 K | – | 684 ± 5.3 | – | – | – | –
[2], 399.84 K | – | 687.9 ± 5.3 | – | – | – | –
[2], 401.55 K | – | 688.6 ± 5.3 | – | – | – | –
[2], 407.15 K | – | 691.2 ± 5.4 | – | – | – | –
[2], 412.77 K | – | 693.8 ± 5.4 | – | – | – | –
[2], 419.95 K | – | 697.1 ± 5.4 | – | – | – | –
[2], 425.95 K | – | 698.5 ± 5.4 | – | – | – | –
[2], 433.28 K | – | 703.2 ± 5.4 | – | – | – | –
[2], 439.98 K | – | 706.3 ± 5.5 | – | – | – | –
[2], 444.9 K | – | 709.2 ± 5.5 | – | – | – | –
[2], 452.4 K | – | 711.9 ± 5.5 | – | – | – | –
[2], 463.15 K | – | 716.9 ± 5.6 | – | – | – | –
[2], 469.05 K | – | 719.5 ± 5.6 | – | – | – | –
[2], 473.15 K | – | 721.5 ± 5.6 | – | – | – | –
